Reference: article PMC3753754, “Andrographis paniculata Extract and Andrographolide Modulate the Hepatic Drug Metabolism System and Plasma Tolbutamide Concentrations in Rats” (Evidence-based Complementary and Alternative Medicine : eCAM, 2013)

Columns and labels:
[1] = Plasma tolbutamide concentration in high-fat diet-induced obese mice; assay type: in vivo, C57BL/6 mice; details: C57BL/6, mouse, 2 h after dosing 20 mg/kg oral tolbutamide, control obese mice (methyl cellulose vehicle)
Experimental: Eleven-month-old high-fat diet-fed (45% of energy from fat; Research Diet Inc., New Brunswick, NJ) C57BL/6 mice were obtained from the National Health Research Institute (Miaoli, Taiwan). Control mice were orally administered 0.5% methyl cellulose (10 mL/kg). […] After the 5th daily dose, the mice were deprived of food overnight. On day 6, a 20 mg/kg oral dose of tolbutamide, as a solution in Cremophor EL/ethanol/water (30/10/60, v/v/v), was administered to each mouse. Thirty minutes later, a 1 g/kg dose of glucose, as a solution in water, was administered orally according to the method described by Zong et al.. Serial blood samples were collected up to 8 h after the glucose dose from each mouse. The animals were then killed by exsanguination and the livers collected.
Tolbutamide was prepared in a solution of Cremophor EL/ethanol/water (30/10/60, v/v/v). […]
The HPLC system consisted of an Agilent 1100 series LC System (Palo Alto, CA) and an Agilent Zorbax Eclipse XDB-C8 column (3 μm, 3.0 mm × 150 mm), interfaced to an Agilent MSD mass spectrometer equipped with an electrospray ionization source. […] The positive ion of the testing compound was selected, and the peak size was measured. The area under the plasma tolbutamide concentration versus time curve (AUC) was calculated by using the trapezoidal method.

[2] = Pharmacokinetics of tolbutamide in control, APE-pretreated and andrographolide-pretreated rats; assay type: in vivo, Sprague-Dawley rats; details: male, Sprague-Dawley, rat, plasma, control rats (methyl cellulose vehicle for 5 days), tolbutamide 20 mg/kg oral
Experimental: Seven-week-old male Sprague-Dawley rats cannulated in the jugular vein were purchased from the Bio LASCO Experimental Animal Center (Taipei, Taiwan). The animals were fed a standard rat diet and were randomly assigned into control, APE-treated, and andrographolide-treated groups (n = 5). Rats were housed in plastic cages in a room kept at 23 ± 1°C and 60 ± 5% relative humidity with a 12-hour light and dark cycle. Food and drinking water were available ad libitum. Control rats were orally administered methyl cellulose. […] After the 5th daily dose, rats were deprived of food overnight. On day 6, a 20 mg/kg oral dose of tolbutamide, as a solution in Cremophor EL (polyoxyl 35 hydrogenated castor oil, Sigma)/ethanol/water (30/10/60, v/v/v), was administered to each rat. After the administration of tolbutamide, serial blood samples were collected up to 12 h after dosing from each rat. The animals were then killed by exsanguination, and the livers were collected.
Tolbutamide was prepared in a solution of Cremophor EL/ethanol/water (30/10/60, v/v/v). After administration, blood samples (~200 μL) were collected from the tail vein of each rat at 0.25, 0.5, 1, 2, 4, 8, and 12 h after dosing. Plasma was separated from blood by centrifugation (4000 ×g for 20 min at 4°C). An aliquot of 50 μL plasma was mixed with 100 μL acetonitrile and then centrifuged at 10,000 ×g for 15 min at 4°C. The supernatant was used to determine the concentration of tolbutamide by LC/MS. Calibration standards of tolbutamide were prepared by serial dilution of a tolbutamide stock solution with blank plasma, yielding final concentrations of tolbutamide ranging from 1 to 300 μg/mL of plasma.
The HPLC system consisted of an Agilent 1100 series LC System (Palo Alto, CA) and an Agilent Zorbax Eclipse XDB-C8 column (3 μm, 3.0 mm × 150 mm), interfaced to an Agilent MSD mass spectrometer equipped with an electrospray ionization source. Column temperature was set at 25°C. The initial mobile phase composition was 30% acetonitrile containing 10 mM ammonium acetate (solvent A) and 70% of 0.1% formic acid (solvent B). The following gradient system was used: 30% A to 50% A (0-1 min), 50% A to 98% A (1–3 min), 98% A (3–9 min), 98% A to 30% A (9-10 min), and 30% A (10–15 min). The flow rate was 0.5 mL/min. Sample injection volume was 10 μL. The MS data acquisition was via selected ion monitoring. The positive ion of the testing compound was selected, and the peak size was measured. The area under the plasma tolbutamide concentration versus time curve (AUC) was calculated by using the trapezoidal method.

concentration at 2 h [1]: 124 ± 32 µg/mL
MRT [2]: 7.9 ± 1.6 h
AUC(0-t) ([2]; read-out: AUC0–12 h of plasma tolbutamide): 1390 ± 262 µg·h/mL
Cmax ([2]; read-out: C max of tolbutamide): 151 ± 21 µg/mL
Tmax ([2]; read-out: T max of tolbutamide): 1.6 ± 0.5 h
Compound: CCCCNC(=O)NS(=O)(=O)c1ccc(C)cc1 [tolbutamide]
